The values that follow come from patent US20240190857A1, “METHODS FOR MANUFACTURE OF SMALL MOLECULE ACTIVATORS OF TIE-2” (EyePoint Pharmaceuticals, Inc., priority 2020, published 2024).

In brackets after ≈: the same amount, converted by molar mass. Like-named read-outs stand apart in the source and are kept apart here.

This data set in a line: Solubility of compounds in various solvents. Format: physicochemical. The settings on record: for solubility: organic solvent or mixture, read-out: Observation: solubility / saturation concentration (S.C.).

As for `COC(=O)N[C@@H](Cc1ccccc1)C(=O)N[C@@H](Cc1ccc(NS(=O)(=O)[O-])cc1)c1csc(-c2cccs2)n1.[Na+]` [Compound 1, sodium (4-((S)-2-((S)-2-((methoxycarbonyl)amino)-3-phenylpropanamido)-2-(2-(thiophen-2-yl)thiazol-4-yl)ethyl)phenyl)sulfamate], the solubility runs as follows: (17 °C, Acetone, 17-22° C.) under 60 mg/mL; (17 °C, Acetone:H2O (80:20), 17-22° C.) at least 53 mg/mL; (17 °C, DMSO, 17-22° C.) at least 106 mg/mL; (17 °C, MeOH, 17-22° C.) about 30 mg/mL; (17 °C, THF, 17-22° C.) under 40 mg/mL.

As for `CN(C)C.COC(=O)N[C@@H](Cc1ccccc1)C(=O)N[C@@H](Cc1ccc(NS(=O)(=O)O)cc1)c1csc(-c2cccs2)n1` [Compound F-5, trimethylammonium (4-((S)-2-((S)-2-((methoxycarbonyl)amino)-3-phenylpropanamido)-2-(2-(thiophen-2-yl)thiazol-4-yl)ethyl)phenyl)sulfamate], the “Observation: solubility / saturation concentration (S.C.)” value (MeOH, 17-22° C.) is recorded as “Soluble at 93 mg/mL”.

As to `COC(=O)N[C@@H](Cc1ccccc1)C(=O)N[C@@H](Cc1ccc([N+](=O)[O-])cc1)c1csc(-c2cccs2)n1` [Compound F-3, methyl ((S)-1-(((S)-2-(4-nitrophenyl)-1-(2-(thiophen-2-yl)thiazol-4-yl)ethyl)amino)-1-oxo-3-phenylpropan-2-yl)carbamate], the solubility reads like this: (17 °C, DMF, 17-22° C.) at least 100 mg/mL; (17 °C, THF, 17-22° C.) about 5 mg/mL (≈ 9.32 mM); (17 °C, Toluene, 17-22° C.) under 5 mg/mL; (50 °C, THF, 50-55° C.) about 100 mg/mL (≈ 186 mM); (60 °C, 2-MeTHF, 60-65° C.) about 15 mg/mL (≈ 28 mM).
